Assay results: publication PMC7320011, “Rationally designed ruthenium complexes for 1- and 2-photon photodynamic therapy” (Nature Communications, 2020)
Several values for one entry are separate records, joined by “and”; a condition that tells them apart may be missing. Equal entries are not always repeated. Where two headings read alike, the source gives them in different places.

Legend:
[1] = Excited state lifetime; format: physicochemical; settings: for τ air, excited state lifetime: air saturated acetonitrile; for τ degassed, excited state lifetime: degassed acetonitrile
Method: The sample was prepared in an air saturated as well as a degassed acetonitrile solution with an absorption of 0.2 at 355 nm. The sample was irradiated at 355 nm with a NT342B Nd-YAG pumped optical parametric oscillator (Ekspla). The emission was focused at right angle to the excitation pathway and directed to a Princeton Instruments Acton SP-2300i monochromator. The signal was detected with a R928 photomultiplier tube (Hamamatsu).

[2] = Singlet oxygen quantum yield, direct evaluation (1O2 phosphorescence); format: physicochemical
Method: Direct evaluation: the sample was prepared in an air-saturated acetonitrile or deuterated water solution with an absorption of 0.2 at 450 nm. The sample was irradiated at 450 nm with a mounted M450LP1 LED (Thorlabs), whose light was focused with aspheric condenser lenses. Using a T-Cube LED Driver (Thorlabs), the intensity of the irradiation was varied and monitored with an optical power and energy meter. The emission was focused at right angle to the excitation pathway and directed to a Princeton Instruments Acton SP-2300i monochromator. To cut off light at wavelengths shorter than 850 nm, a longpass glass filter was placed in front of the monochromator entrance slit. The signal was detected with an EO-817L IR-sensitive liquid-nitrogen cooled germanium diode detector (North Coast Scientific Corp.). The luminescence signal, centered at 1270 nm, was measured from 1100 to 1400 nm. The obtained data were analyzed upon plotting the integrated luminescence peaks against the percentage of the irradiation intensity. The slope of the linear regression was calculated and compared with the reference Rose Bengal (Φ = 76%)[59]. The absorption of the sample was corrected with an absorption correction factor. The singlet oxygen quantum yields were calculated using the following formula:4 Φsample=Φreference×Ssample/Sreference×Ireference/Isample, 5 I=I0×1−10^-A.
Φ = singlet oxygen quantum yield, S = slope of the linear regression of the plot of the areas of the singlet oxygen luminescence peaks against the irradiation intensity, I = absorption correction factor, I0 = light intensity of the irradiation source, and A = absorption of the sample at irradiation wavelength.

[3] = test system: noncancerous retinal pigment epithelium (RPE-1) cells
Method: (§1) A total of 4 × 10^3 cells were seeded on 96-well plates and allowed to adhere overnight. The cells were treated with increasing concentrations of the sample diluted in cell media achieving a total volume of 200 μL. The cells were incubated with the sample for 8 h and, after this time, the medium refreshed. To study the phototoxic effect of the sample, the cells were exposed to 480 nm (spectral half-width: 20 nm, 10 min, 5.2 mW cm^−2, 3.1 J cm^−2) or 540 nm (spectral half-width: 30 nm, 40 min, 4.0 mW cm^−2, 9.5 J cm^−2) light using an Atlas Photonics LUMOS BIO irradiator. To study the dark cytotoxicity of the sample, the cells were not irradiated and the medium exchanged. The cells were grown for an additional 40 h at 37 °C. After this time, the medium was replaced with fresh medium containing resazurin with a final concentration of 0.2 mg mL^−1. The cells were incubated for 4 h and the amount of the fluorescent product resorufin determined (λex = 540 nm, λem = 590 nm) with a SpectraMax M2 Microplate Reader (Molecular Devices). The obtained data was analyzed with the GraphPad Prism software.

[4] = test system: noncancerous retinal pigment epithelium (RPE-1) cells; assay: (Photo-)cytotoxicity on 2D cell monolayers, RPE-1; settings: for PI (480 nm): RPE-1, dark vs 480 nm; for PI (540 nm): RPE-1, dark vs 540 nm; for IC50: 1-3 as chloride salts
Method: as §1

[5] = test system: human cervical carcinoma (HeLa) cells; assay: (Photo-)cytotoxicity on 2D cell monolayers, HeLa; format: cell-based; settings: for IC50: 1-3 as chloride salts; for PI (480 nm): dark vs 480 nm; for PI (540 nm): dark vs 540 nm
Method: as §1

[6] = Distribution coefficient (shake-flask, octanol/PBS); format: physicochemical; settings: ICP-MS
Method: Using the “shake-flask” method, the distribution coefficient between the PBS and octanol phase of the sample was determined. The PBS and octanol phases were previously saturated in each other. The sample was dissolved in the phase, which is dissolving best the compound. This solution was added to an equal volume of the other phase and mixed at 190 rpm overnight with a sample mixer. Following this, the solutions were equilibrated for 4 h. The phases were carefully separated from each other. The amount of the sample in each phase was determined by ICP-MS. The evaluation was repeated three times and the ratio between the organic and aqueous phase determined.

[7] = Photostability (absorption spectra upon irradiation); format: physicochemical; settings: 450 nm, 0 to 10 min (13.2 J cm^−2), air-saturated acetonitrile
Method: The sample was prepared in an air-saturated acetonitrile solution. Using a Atlas Photonics LUMOS BIO irradiator, the sample was constantly irradiated at 450 nm in time intervals from 0 to 10 min (13.2 J cm^−2). The absorption spectra from 350 to 700 nm was monitored with a SpectraMax M2 Microplate Reader (Molecular Devices) at each time interval. As positive and negative controls, respectively, [Ru(2,2′-bipyridine)3]Cl2 and Protoporphyrin IX were used.

[8] = Two-photon absorption cross section; format: physicochemical; settings: dichloromethane
Method: The two-photon absorption cross section spectra of the sample was determined upon direction comparison to Rhodamine B. The sample was irradiated with an OpoletteTM 355II (pulse width ≤ 100 fs, 80 MHz repetition rate, Spectra Physics Inc.) laser. The experimental excitation and detection conditions were conducted with negligible reabsorption processes, which could affect two-photon absorption measurements. The quadratic dependence of the two-photon induced luminescence intensity on the excitation power was verified at an excitation wavelength of 800 nm. The two-photon absorption cross section was calculated using the following equation:1 σ2,sample=σ2,reference×Φreference×creference×Isample×nsample/Φsample×csample×Ireference×nreference,
σ2 = two-photon cross section, Φ = luminescence quantum yield, c = concentration, I = integrated luminescence intensity, n = refractive index

[9] = test system: mouse colon carcinoma (CT-26) cells
Method: as §1

[10] = test system: human glioblastoma astrocytoma (U373) cells;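 also: Resazurin-to-resorufin fluorescence viability readout, 8 h compound exposure then medium change, light dose 3.1 J cm^−2 at 480 nm or 9.5 J cm^−2 at 540 nm, analysed 40 h later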
Method: as §1

[11] = test system: mouse colon carcinoma (CT-26) cells; assay: (Photo-)cytotoxicity on 2D cell monolayers, CT-26; settings: for PI (480 nm): CT-26, dark vs 480 nm; for PI (540 nm): CT-26, dark vs 540 nm; for IC50: 1-3 as chloride salts
Method: as §1

[12] = test system: human glioblastoma astrocytoma (U373) cells; assay: (Photo-)cytotoxicity on 2D cell monolayers, U373; settings: for PI (480 nm): U373, dark vs 480 nm; for PI (540 nm): U373, dark vs 540 nm; for IC50: 1-3 as chloride salts;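 as to all read-outs here: Resazurin-to-resorufin fluorescence viability readout, 8 h compound exposure then medium change, light dose 3.1 J cm^−2 at 480 nm or 9.5 J cm^−2 at 540 nm, analysed 40 h later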
Method: as §1

[13] = read-out: IC50 540 nm (40 min, 9.5 J cm-2), RPE-1, 540 nm
[14] = read-out: IC50 dark, RPE-1, dark
[15] = 480 nm, read-out: IC50 480 nm (10 min, 3.1 J cm-2)
[16] = 540 nm, read-out: IC50 540 nm (40 min, 9.5 J cm-2)
[17] = read-out: IC50 540 nm (40 min, 9.5 J cm-2), CT-26, 540 nm
[18] = read-out: IC50 dark, CT-26, dark
[19] = read-out: IC50 480 nm (10 min, 3.1 J cm-2), U373, 480 nm
[20] = read-out: IC50 dark, U373, dark

SMILES	τ air, excited state lifetime [1] [ns]	τ degassed, excited state lifetime [1] [ns]	Singlet oxygen quantum yield, Direct 450 nm CH3CN [2] [%]	IC50 [3] [µM]	PI (480 nm) [4]	PI (540 nm) [4]	IC50 [4, 13] [µM]	IC50 [4, 14] [µM]	IC50 [5, 15] [µM]	IC50 [5, 16] [µM]	PI (480 nm) [5]	PI (540 nm) [5]	IC50 ([5]; dark, read-out: IC50 dark) [µM]	logD (octanol/PBS) [6]	photostability (change of absorption spectra upon irradiation) [7]	IC50 [9] [µM]	IC50 [10] [µM]	PI (480 nm) [11]	PI (540 nm) [11]	IC50 [11, 17] [µM]	other results
C(=C\c1ccnc(-c2cc(/C=C/c3ccccc3)ccn2)c1)/c1ccccc1.C(=C\c1ccnc(-c2cc(/C=C/c3ccccc3)ccn2)c1)/c1ccccc1.C(=C\c1ccnc(-c2cc(/C=C/c3ccccc3)ccn2)c1)/c1ccccc1.F[P-](F)(F)(F)(F)F.F[P-](F)(F)(F)(F)F.[Ru+2] [compound 1]	86	385	65	30.9	> 3.2	> 3.2	31.7	> 100	29.5	48.7	> 3.4	> 2.1	> 100	+2.6 ± 0.4	no significant differences in the absorption spectra	20.3	83.1	> 4.9	> 3.0	33.4	σ2, 2P absorption cross section [8]: 147 GM; IC50 [11, 18]: > 100 µM; PI (480 nm) [12]: > 1.9; PI (540 nm) [12]: > 1.2; IC50 [12, 19]: 51.7 µM; IC50 [12, 20]: > 100 µM
CN(C)c1ccc(/C=C/c2ccnc(-c3cc(/C=C/c4ccc(N(C)C)cc4)ccn3)c2)cc1.CN(C)c1ccc(/C=C/c2ccnc(-c3cc(/C=C/c4ccc(N(C)C)cc4)ccn3)c2)cc1.CN(C)c1ccc(/C=C/c2ccnc(-c3cc(/C=C/c4ccc(N(C)C)cc4)ccn3)c2)cc1.F[P-](F)(F)(F)(F)F.F[P-](F)(F)(F)(F)F.[Ru+2] [compound 2, [Ru((E,E′)-4,4′-Bis[p-(N,N-dimethylamino)styryl]-2,2′-bipyridine)3][PF6]2]	48	222	18	38.4	> 2.6	> 2.0	49	> 100	29.4	52.3	> 3.4	> 1.9	> 100	+2.7 ± 0.4	small changes in the absorption spectra	42.6	61.4	> 2.3	> 1.6	62.5	σ2, 2P absorption cross section [8]: 2175 GM; IC50 [11, 18]: > 100 µM; PI (480 nm) [12]: > 2.0; PI (540 nm) [12]: > 1.6; IC50 [12, 19]: 49.1 µM; IC50 [12, 20]: > 100 µM
COc1ccc(/C=C/c2ccnc(-c3cc(/C=C/c4ccc(OC)cc4)ccn3)c2)cc1.COc1ccc(/C=C/c2ccnc(-c3cc(/C=C/c4ccc(OC)cc4)ccn3)c2)cc1.COc1ccc(/C=C/c2ccnc(-c3cc(/C=C/c4ccc(OC)cc4)ccn3)c2)cc1.F[P-](F)(F)(F)(F)F.F[P-](F)(F)(F)(F)F.[Ru+2] [compound 3, [Ru((E,E′)-4,4′-Bis[p-methoxystyryl]-2,2′-bipyridine)3][PF6]2]	76	338	52	53.6	> 1.9	> 2.2	44.9	> 100	15.3	11.3	> 6.5	> 8.8	> 100	+2.3 ± 0.3	no significant differences in the absorption spectra	19.3	51.3	> 5.2	> 4.3	23	σ2, 2P absorption cross section [8]: 573 GM; IC50 [11, 18]: > 100 µM; PI (480 nm) [12]: > 2.4; PI (540 nm) [12]: > 1.9; IC50 [12, 19]: 41 µM; IC50 [12, 20]: > 100 µM
COc1ccc(/C=C/c2ccnc(-c3cc(/C=C/c4ccc(OC)cc4)ccn3)c2)cc1.F[P-](F)(F)(F)(F)F.F[P-](F)(F)(F)(F)F.[Ru+2].c1ccc(-c2ccccn2)nc1.c1ccc(-c2ccccn2)nc1 [compound 7, [Ru(2,2′-bipyridine)2((E,E′)-4,4′-Bis[p-methoxystyryl]-2,2′-bipyridine)][PF6]2]	96	542	75	3.1	> 32.3	> 11.9	8.4	> 100	1.2	1.5	> 83.3	> 66.7	> 100	+0.5 ± 0.2	no significant differences in the absorption spectra	0.7 ± 0.4	13.5	> 143 and > 142.9	> 111.1	0.9 ± 0.3	IC50 [11, 18]: > 100 µM; PI (480 nm) [12]: > 9.5; PI (540 nm) [12]: > 7.4; IC50 [12, 19]: 10.5 µM; IC50 [12, 20]: > 100 µM
